{
  "source": "patent US20090232838A1",
  "about": "“Ligands of melanocortin receptors” (priority 2005, published 2009)",
  "format_in_all_cases": "cell-based",
  "key": {"hMC1-R": {"molecular_target": "T1, hMC1-R (Homo sapiens, UniProt Q01726)", "T1 construct": "expressed in transfected cells; host or cells: CHO-K1", "T1 sequence (Q01726 whole entry)": "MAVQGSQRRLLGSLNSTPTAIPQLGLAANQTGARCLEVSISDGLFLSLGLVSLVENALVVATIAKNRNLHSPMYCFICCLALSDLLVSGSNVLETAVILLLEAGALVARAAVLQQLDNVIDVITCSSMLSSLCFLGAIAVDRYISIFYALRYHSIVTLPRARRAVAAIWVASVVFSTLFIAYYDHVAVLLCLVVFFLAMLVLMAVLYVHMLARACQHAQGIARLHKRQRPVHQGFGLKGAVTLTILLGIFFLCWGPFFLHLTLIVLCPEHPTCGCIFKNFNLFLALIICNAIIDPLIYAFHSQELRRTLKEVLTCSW", "experiment": "cyclic AMP bioassay, hMC1-R"}, "hMC4-R": {"molecular_target": "T2, hMC4-R (Homo sapiens, UniProt P32245)", "T2 construct": "expressed in transfected cells; host or cells: CHO-K1", "T2 sequence (P32245 whole entry)": "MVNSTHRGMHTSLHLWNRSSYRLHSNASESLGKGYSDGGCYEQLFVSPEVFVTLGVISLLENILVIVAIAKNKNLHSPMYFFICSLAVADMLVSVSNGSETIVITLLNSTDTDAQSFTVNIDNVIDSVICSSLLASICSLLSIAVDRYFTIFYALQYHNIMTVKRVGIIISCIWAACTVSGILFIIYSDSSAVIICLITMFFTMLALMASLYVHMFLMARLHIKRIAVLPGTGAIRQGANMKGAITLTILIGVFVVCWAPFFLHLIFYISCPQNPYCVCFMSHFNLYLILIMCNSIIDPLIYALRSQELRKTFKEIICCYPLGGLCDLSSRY", "experiment": "cyclic AMP bioassay, hMC4-R"}, "hMC5-R": {"molecular_target": "T3, hMC5-R (Homo sapiens, UniProt P33032)", "T3 construct": "expressed in transfected cells; host or cells: CHO-K1", "T3 sequence (P33032 whole entry)": "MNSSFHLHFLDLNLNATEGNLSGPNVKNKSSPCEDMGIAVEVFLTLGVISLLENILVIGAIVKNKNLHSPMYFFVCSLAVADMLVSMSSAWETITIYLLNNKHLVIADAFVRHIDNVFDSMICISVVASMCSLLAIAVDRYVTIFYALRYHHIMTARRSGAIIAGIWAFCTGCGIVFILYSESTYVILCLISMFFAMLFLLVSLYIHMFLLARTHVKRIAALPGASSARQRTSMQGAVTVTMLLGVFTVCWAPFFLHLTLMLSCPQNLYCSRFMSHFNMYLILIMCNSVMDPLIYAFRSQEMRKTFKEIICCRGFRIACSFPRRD", "experiment": "cyclic AMP bioassay, hMC5-R"}, "hMC3-R": {"molecular_target": "T4, hMC3-R (Homo sapiens, UniProt P41968)", "T4 construct": "expressed in transfected cells; host or cells: CHO-K1", "T4 sequence (P41968 whole entry)": "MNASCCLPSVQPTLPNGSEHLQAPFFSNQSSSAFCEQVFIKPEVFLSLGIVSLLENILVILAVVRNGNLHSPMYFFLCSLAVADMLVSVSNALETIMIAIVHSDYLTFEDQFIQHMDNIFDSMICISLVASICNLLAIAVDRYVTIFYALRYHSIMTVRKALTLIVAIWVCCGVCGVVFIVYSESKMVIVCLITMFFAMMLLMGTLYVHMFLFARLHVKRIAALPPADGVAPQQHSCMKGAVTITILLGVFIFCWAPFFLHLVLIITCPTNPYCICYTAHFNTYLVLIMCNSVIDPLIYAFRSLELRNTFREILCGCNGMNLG", "experiment": "cyclic AMP bioassay, hMC3-R"}, "[1]": {"details": "Table 3A, cAMP in CHO-K1 cells, agonist, read-out: EC50 hMC1-R"}, "[2]": {"details": "Table 3A, cAMP in CHO-K1 cells, antagonist potency by Schild analysis, read-out: Kb hMC4-R"}, "[3]": {"details": "Table 3A, cAMP in CHO-K1 cells, agonist, read-out: EC50 hMC5-R"}, "[4]": {"details": "Table 3A, cAMP in CHO-K1 cells, antagonist potency by Schild analysis, read-out: Kb hMC3-R"}},
  "note": "Where two headings read alike, the source gives them in different places.",
  "data": [
    {"smiles": "CC(=O)N[C@H]1CSSC[C@@H](C(=O)N2CCC[C@H]2C(=O)N2CCC[C@H]2C(=O)N[C@@H](CCCCN)C(=O)N[C@@H](CC(=O)O)C(=O)NCCC(=O)N[C@@H](Cc2ccc(O)cc2)C(=O)NCC(=O)N[C@@H](CCCNC(=N)N)C(=O)N[C@@H](CCCCN)C(=O)N[C@@H](CCCNC(=N)N)C(=O)N[C@@H](CCCNC(=N)N)C(=O)N[C@@H](CCCNC(=N)N)C(=O)N[C@@H](CCC(N)=O)C(=O)N[C@@H](CCCNC(=N)N)C(=O)N[C@@H](CCCNC(=N)N)C(=O)N[C@@H](CCCNC(=N)N)C(N)=O)NC(=O)[C@H](C)NC(=O)[C@H](Cc2ccc3ccccc3c2)NC(=O)[C@H](CCCNC(=N)N)NC(=O)[C@@H](Cc2ccc3ccccc3c2)NC(=O)[C@H](Cc2c[nH]cn2)NC(=O)[C@H](CCC(=O)O)NC1=O", "values": [
      {"measurement": "EC50", "setting": "hMC1-R", "value": 34.7, "unit": "nM"},
      {"measurement": "Kb", "setting": "hMC4-R", "value": 8.68, "unit": "nM"},
      {"measurement": "EC50", "setting": "hMC5-R", "value": 28.2, "unit": "nM"},
      {"measurement": "Kb", "setting": "hMC3-R", "value": 15, "unit": "nM"}
    ]},
    {"smiles": "CC(=O)N[C@H]1CSSC[C@@H](C(=O)N2CCC[C@H]2C(=O)N2CCC[C@H]2C(=O)N[C@@H](CCCCN)C(=O)N[C@@H](CC(=O)O)C(=O)NCCC(=O)N[C@@H](Cc2ccc(O)cc2)C(=O)NCC(=O)N[C@@H](CCCNC(=N)N)C(=O)N[C@@H](CCCCN)C(=O)N[C@@H](CCCCN)C(=O)N[C@@H](CCC(N)=O)C(=O)N[C@@H](CCCNC(=N)N)C(=O)N[C@@H](CCCNC(=N)N)C(=O)N[C@@H](CCCNC(=N)N)C(=O)N[C@@H](CCCNC(=N)N)C(=O)N[C@@H](CCCNC(=N)N)C(N)=O)NC(=O)[C@H](C)NC(=O)[C@H](Cc2c[nH]c3ccccc23)NC(=O)[C@H](CCCNC(=N)N)NC(=O)[C@@H](Cc2ccc3ccccc3c2)NC(=O)[C@H](Cc2c[nH]cn2)NC(=O)[C@H](CCC(=O)O)NC1=O", "values": [
      {"measurement": "EC50", "setting": "hMC1-R; [1]", "value": 6.7, "unit": "nM"},
      {"measurement": "Kb", "setting": "hMC4-R; [2]", "value": 11.7, "unit": "nM"},
      {"measurement": "EC50", "setting": "hMC5-R; [3]", "value": 46.2, "unit": "nM"},
      {"measurement": "Kb", "setting": "hMC3-R; [4]", "value": 9.38, "unit": "nM"}
    ]},
    {"smiles": "CC(=O)N[C@H]1CSSC[C@@H](C(=O)N2CCC[C@H]2C(=O)N2CCC[C@H]2C(=O)N[C@@H](CCCCN)C(=O)N[C@@H](CC(=O)O)C(=O)NCCC(=O)N[C@@H](Cc2ccc(O)cc2)C(=O)NCC(=O)N[C@@H](CCCNC(=N)N)C(=O)N[C@@H](CCC(N)=O)C(=O)N[C@@H](CCCCN)C(=O)N[C@@H](CCCCN)C(=O)N[C@@H](CCCNC(=N)N)C(=O)N[C@@H](CCCNC(=N)N)C(=O)N[C@@H](CCCNC(=N)N)C(=O)N[C@@H](CCCNC(=N)N)C(=O)N[C@@H](CCCNC(=N)N)C(N)=O)NC(=O)[C@H](C)NC(=O)[C@H](Cc2c[nH]c3ccccc23)NC(=O)[C@H](CCCNC(=N)N)NC(=O)[C@@H](Cc2ccc3ccccc3c2)NC(=O)[C@H](Cc2c[nH]cn2)NC(=O)[C@H](CCC(=O)O)NC1=O", "values": [
      {"measurement": "EC50", "setting": "hMC1-R; [1]", "value": 12, "unit": "nM"},
      {"measurement": "Kb", "setting": "hMC4-R; [2]", "value": 9.38, "unit": "nM"},
      {"measurement": "EC50", "setting": "hMC5-R; [3]", "value": 54.2, "unit": "nM"},
      {"measurement": "Kb", "setting": "hMC3-R; [4]", "value": 13.7, "unit": "nM"}
    ]},
    {"smiles": "CC(=O)N[C@H]1CSSC[C@@H](C(=O)N2CCC[C@H]2C(=O)N2CCC[C@H]2C(=O)N[C@@H](CCCCN)C(=O)N[C@@H](CC(=O)O)C(=O)NCCC(=O)N[C@@H](Cc2ccc(O)cc2)C(=O)NCC(=O)N[C@@H](CCCNC(=N)N)C(=O)N[C@@H](CCCCN)C(=O)N[C@@H](CCCCN)C(=O)N[C@@H](CCCNC(=N)N)C(=O)N[C@@H](CCCNC(=N)N)C(=O)N[C@@H](CCCNC(=N)N)C(=O)N[C@@H](CCCNC(=N)N)C(=O)N[C@@H](CCC(N)=O)C(=O)N[C@@H](CCCNC(=N)N)C(N)=O)NC(=O)[C@H](C)NC(=O)[C@H](Cc2c[nH]c3ccccc23)NC(=O)[C@H](CCCNC(=N)N)NC(=O)[C@@H](Cc2ccc3ccccc3c2)NC(=O)[C@H](Cc2c[nH]cn2)NC(=O)[C@H](CCC(=O)O)NC1=O", "values": [
      {"measurement": "EC50", "setting": "hMC1-R; [1]", "value": 16.9, "unit": "nM"},
      {"measurement": "Kb", "setting": "hMC4-R; [2]", "value": 7.12, "unit": "nM"},
      {"measurement": "EC50", "setting": "hMC5-R; [3]", "value": 58.9, "unit": "nM"},
      {"measurement": "Kb", "setting": "hMC3-R; [4]", "value": 36, "unit": "nM"}
    ]},
    {"smiles": "CC(=O)N[C@H]1CSSC[C@@H](C(=O)N2CCC[C@H]2C(=O)N2CCC[C@H]2C(=O)N[C@@H](CCCCN)C(=O)N[C@@H](CC(=O)O)C(=O)NCCC(=O)N[C@@H](Cc2ccc(O)cc2)C(=O)NCC(=O)N[C@@H](CCCNC(=N)N)C(=O)N[C@@H](CCCCN)C(=O)N[C@@H](CCC(N)=O)C(=O)N[C@@H](CCCCN)C(=O)N[C@@H](CCCNC(=N)N)C(=O)N[C@@H](CCCNC(=N)N)C(=O)N[C@@H](CCCNC(=N)N)C(=O)N[C@@H](CCCNC(=N)N)C(=O)N[C@@H](CCCNC(=N)N)C(N)=O)NC(=O)[C@H](C)NC(=O)[C@H](Cc2c[nH]c3ccccc23)NC(=O)[C@H](CCCNC(=N)N)NC(=O)[C@@H](Cc2ccc3ccccc3c2)NC(=O)[C@H](Cc2c[nH]cn2)NC(=O)[C@H](CCC(=O)O)NC1=O", "values": [
      {"measurement": "EC50", "setting": "hMC1-R; [1]", "value": 7.9, "unit": "nM"},
      {"measurement": "Kb", "setting": "hMC4-R; [2]", "value": 10.9, "unit": "nM"},
      {"measurement": "EC50", "setting": "hMC5-R; [3]", "value": 62.4, "unit": "nM"},
      {"measurement": "Kb", "setting": "hMC3-R; [4]", "value": 41.7, "unit": "nM"}
    ]},
    {"smiles": "CC(=O)N[C@H]1CSSC[C@@H](C(=O)N2CCC[C@H]2C(=O)N2CCC[C@H]2C(=O)N[C@@H](CCCCN)C(=O)N[C@@H](CC(=O)O)C(=O)NCCC(=O)N[C@@H](Cc2ccc(O)cc2)C(=O)NCC(=O)N[C@@H](CCCNC(=N)N)C(=O)N[C@@H](CCCCN)C(=O)N[C@@H](CCCCN)C(=O)N[C@@H](CCCNC(=N)N)C(=O)N[C@@H](CCCNC(=N)N)C(=O)N[C@@H](CCCNC(=N)N)C(=O)N[C@@H](CCC(N)=O)C(=O)N[C@@H](CCCNC(=N)N)C(=O)N[C@@H](CCCNC(=N)N)C(N)=O)NC(=O)[C@H](C)NC(=O)[C@H](Cc2c[nH]c3ccccc23)NC(=O)[C@H](CCCNC(=N)N)NC(=O)[C@@H](Cc2ccc3ccccc3c2)NC(=O)[C@H](Cc2c[nH]cn2)NC(=O)[C@H](CCC(=O)O)NC1=O", "values": [
      {"measurement": "EC50", "setting": "hMC1-R; [1]", "value": 16.4, "unit": "nM"},
      {"measurement": "Kb", "setting": "hMC4-R; [2]", "value": 7.31, "unit": "nM"},
      {"measurement": "EC50", "setting": "hMC5-R; [3]", "value": 44.2, "unit": "nM"},
      {"measurement": "Kb", "setting": "hMC3-R; [4]", "value": 20.8, "unit": "nM"}
    ]}
  ]
}
